The text below walks through data of patent US20250332201A1, “PHARMACEUTICAL COMPOSITION, MEGASPHAERA, AND USE THEREOF” (MOON (GUANGZHOU) BIOTECH CO., LTD., priority 2022, published 2025).

One assay concerns strain MNH27256. Briefly: Antibiotic sensitivity test, disk diffusion method. The format is cell-based, Megasphaera sp. On the procedure:
(§1) Antibiotic sensitivity tests of the strains MNH05026, MNH22004, and MNH27256: Antibiotic sensitivity tests were carried out on the strains MNH05026, MNH22004, and MNH27256 by a disk diffusion method.

The next assay deals with strain MNH22004. Briefly: Antibiotic sensitivity test, disk diffusion method. The format is cell-based, Megasphaera sp. On the procedure: as §1
A further assay deals with strain MNH05026. Description: Antibiotic sensitivity test, disk diffusion method. The format is cell-based, Megasphaera sp. As for the experimental part:
as §1
In general terms: In agar diffusion tests the substance spreads into inoculated agar from a disc or well.

Assay [1] relates to mice with NAFLD/NASH induced by a high-fat, high-carbohydrate, and high-cholesterol diet. Briefly: NAFLD/NASH mouse model (high-fat, high-carbohydrate, high-cholesterol diet), strains combined with Semaglutide (Example 9). The class given is in vivo, C57BL/6J mice. As for the experimental part:
3) Controls: PBS-Cys containing 25% glycerol PBS-Cys was used as a negative control; and Semaglutide was used as a positive control.
Administration was initiated after the grouping (D1). The negative control group was given the negative control (PBS-Cys) by gavage, 0.2 mL/mouse, twice a day; the positive control group was given Semaglutide by subcutaneous injection, at a dose of 30 nmol/kg, once every 3 days; and the combined treatment group was given Semaglutide (at a dose and frequency of use the same as those in the positive control group) and the corresponding bacterial solution (0.2 mL/mouse, twice a day) by gavage. The experimental period was 60 days. […] During the experiment, one general clinical observation was conducted after the end of each dosing. The animals were weighed twice a week during the dosing, and before dissection at the experimental endpoint. The endpoint of this experiment was the day following the end of dosing (D61). The animals were dissected and sampled according to the protocol at the experimental endpoint, and the data were summarized to analyze the results. […] Statistical analysis was performed using One-Way ANOVA with Dunnett's multiple comparison test.
Relevant experiments were conducted for the strains MNH05026, MNH22004, and MNH27256 using the methods as described in 1) to 4) above.

In the case of `CC1(C)S[C@@H]2[C@H](NC(=O)[C@H](N)c3ccccc3)C(=O)N2[C@H]1C(=O)O` [Ampicillin], the “Sensitivity or resistance of strain MNH27256 to the antibiotic” value with strain MNH27256 is listed as “resistant”. The “Sensitivity or resistance of strain MNH22004 to the antibiotic” value with strain MNH22004 is “resistant”. For the same molecule, in the assay on strain MNH05026, the “Sensitivity or resistance of strain MNH05026 to the antibiotic” value is recorded as “sensitive”.
`CO/N=C(\C(=O)N[C@@H]1C(=O)N2C(C(=O)O)=C(CSc3nc(=O)c(=O)[nH]n3C)CS[C@H]12)c1csc(N)n1` [Ceftriaxone]: the “Sensitivity or resistance of strain MNH27256 to the antibiotic” value in the assay on strain MNH27256 is “resistant”. For the same molecule, in the assay with strain MNH22004, the “Sensitivity or resistance of strain MNH22004 to the antibiotic” value is recorded as “sensitive”. The “Sensitivity or resistance of strain MNH05026 to the antibiotic” value with strain MNH05026 was “sensitive”.
For the molecule `O=C(N[C@H](CO)[C@H](O)c1ccc([N+](=O)[O-])cc1)C(Cl)Cl` [Chloramphenicol], in the assay with strain MNH27256, the “Sensitivity or resistance of strain MNH27256 to the antibiotic” value is on record as “sensitive”. In addition, the “Sensitivity or resistance of strain MNH22004 to the antibiotic” value in the assay on strain MNH22004 is “sensitive”. In the assay on strain MNH05026, the “Sensitivity or resistance of strain MNH05026 to the antibiotic” value was “sensitive”.
`O=C(O)c1cn(C2CC2)c2cc(N3CCNCC3)c(F)cc2c1=O` [Ciprofloxacin]: in the assay with strain MNH27256, the “Sensitivity or resistance of strain MNH27256 to the antibiotic” value is recorded as “sensitive”. Further, the “Sensitivity or resistance of strain MNH22004 to the antibiotic” value with strain MNH22004 is given as “sensitive”. Also, the “Sensitivity or resistance of strain MNH05026 to the antibiotic” value with strain MNH05026 is recorded as “sensitive”.
On to `CC[C@H]1OC(=O)[C@H](C)[C@@H](O[C@H]2C[C@@](C)(OC)[C@@H](O)[C@H](C)O2)[C@H](C)[C@@H](O[C@@H]2O[C@H](C)C[C@H](N(C)C)[C@H]2O)[C@](C)(O)C[C@@H](C)C(=O)[C@H](C)[C@@H](O)[C@]1(C)O` [Erythromycin], for which the “Sensitivity or resistance of strain MNH27256 to the antibiotic” value in the assay on strain MNH27256 is listed as “sensitive”. For the same molecule, the “Sensitivity or resistance of strain MNH22004 to the antibiotic” value with strain MNH22004 is recorded as “sensitive”. The “Sensitivity or resistance of strain MNH05026 to the antibiotic” value in the assay with strain MNH05026 is listed as “sensitive”.
Consider `CCC[C@@H]1C[C@@H](C(=O)N[C@@H]([C@H]2O[C@H](SC)[C@H](O)[C@@H](O)[C@H]2O)[C@@H](C)O)N(C)C1` [Lincomycin], for which the “Sensitivity or resistance of strain MNH27256 to the antibiotic” value with strain MNH27256 is reported as “sensitive”. Also, the “Sensitivity or resistance of strain MNH22004 to the antibiotic” value with strain MNH22004 is “sensitive”. Besides, the “Sensitivity or resistance of strain MNH05026 to the antibiotic” value in the assay with strain MNH05026 is given as “sensitive”.
Gentamicin: the “Sensitivity or resistance of strain MNH27256 to the antibiotic” value in the assay on strain MNH27256 was “sensitive”. Also, in the assay with strain MNH22004, the “Diameter of inhibition zone by MNH22004” value was 9.00 mm and the “Sensitivity or resistance of strain MNH22004 to the antibiotic” value is reported as “sensitive”. The “Sensitivity or resistance of strain MNH05026 to the antibiotic” value in the assay with strain MNH05026 is on record as “sensitive”.
Take Penicillin: in the assay on strain MNH27256, the “Diameter of inhibition zone by MNH27256” value turned out to be 0 mm and the “Sensitivity or resistance of strain MNH27256 to the antibiotic” value was “resistant”. Moreover, in the assay on strain MNH22004, the “Diameter of inhibition zone by MNH22004” value turned out to be 0 mm and the “Sensitivity or resistance of strain MNH22004 to the antibiotic” value is on record as “resistant”. For the same molecule, the “Sensitivity or resistance of strain MNH05026 to the antibiotic” value in the assay with strain MNH05026 is “sensitive”.
For Semaglutide, the fasting blood glucose result in assay [1] (Day 30 of oral glucose tolerance test) is reported as “no significant effect”. The “body weight, 1 d” value in assay [1] (day 1, in g (unit assumed)) turned out to be 45.97. Further, the “body weight, 33 d” value in assay [1] (day 33, in g (unit assumed)) is given as 36.18. Further, the weight gain value in assay [1] (day 33 of intervention) is reported as −21.30%. Also, the “body weight, 36 d” value in assay [1] (day 36, in g (unit assumed)) is listed as 35.94. Also, the “body weight, 41 d” value in assay [1] (day 41, in g (unit assumed)) amounted to 35.98. In assay [1] (day 44, in g (unit assumed)), the “body weight, 44 d” value came out at 36.34. Further, the “body weight, 48 d” value in assay [1] (day 48, in g (unit assumed)) came to 37.02. Further, the “body weight, 51 d” value in assay [1] (day 51, in g (unit assumed)) came out at 37.26. Besides, the “body weight, 54 d” value in assay [1] (day 54, in g (unit assumed)) came to 36.84. The “body weight, 58 d” value in assay [1] (day 58, in g (unit assumed)) was 38.09. In addition, the “body weight, 60 d” value in assay [1] (day 60, in g (unit assumed)) turned out to be 36.67.
For the molecule Trimethoprim-sulfamethoxazole, in the assay with strain MNH27256, the “Sensitivity or resistance of strain MNH27256 to the antibiotic” value is recorded as “sensitive”. The “Sensitivity or resistance of strain MNH22004 to the antibiotic” value in the assay with strain MNH22004 was “sensitive”. In addition, the “Sensitivity or resistance of strain MNH05026 to the antibiotic” value with strain MNH05026 is “sensitive”.
